# Test results published in US12590953B2, “Methods for screening cereblon modifying compounds” (CELGENE CORPORATION, priority 2018, dated 2026).
# Entries after “also recorded” stand apart in the source; their conditions may differ.
# Experiments:
# [1] = test system: SALL4 binding to cereblon; test: Co-immunoprecipitation of CRBN and SALL4 variants in lenti-X-293 cells expressing GST-CRBN; type: cell-based, human; conditions: 40 μM thalidomide, 8 hours, 1 μM MLN4924
# Procedure: All cells were treated with 1 μM MLN4924, and either 40 μM thalidomide (+) or DMSO vehicle control (−) as indicated for 8 hours (n=2 biological replicates).
# Lenti-X-293 cells were cotransfected with pDEST27-CRBN, which encodes GST-CRBN, and pLOC empty vector (Thermo Fisher), which contains a blasticidin resistant gene. Two days after transfection, cells were trypsinized and seeded into 96-well plates through limiting dilution. After selectin with blasticidin (20 μg/mL) for 2 weeks, single clones were picked, expanded and screened for overexpression of GST-CRBN via immunoblot analysis with anti-CRBN65 antibody. Next, lenti-X-293 cells stably expressing GST-CRBN Human were infected with lentiviruses expressing SALL4 wild-type and variants to generate lenti-x-293 cells stably expressing GST-CRBN and SALL4. Then, cells were treated with DMSO or 40 μM thalidomide for 8 hours in the presence of 1 μM MLN4924, and lysed in Buffer B [50 mM Tris (pH 7.4), 150 mM NaCl, 0.5% NP-40, 10% glycerol, 1× Complete Ultra protease inhibitor (Roche), and 1× PhosphoSTOP (Roche)]. […] After washing the anti-HA resin with Buffer B for 6 times, anti-HA immunoprecipitates were eluted by boiling in 2×LDS loading buffer at 90° C. for 5 minutes, and then subjected to immunoblot analysis.
# [2] = target: T1, SALL4 zinc finger domains / cereblon-CRL4 (Homo sapiens, UniProt Q96SW2+Q9UJQ4, G416A); test: In vitro ubiquitination of human SALL4 zinc fingers by human cereblon-CRL4; type: biochemical; conditions: compared with wild-type ZF2; with thalidomide
# T1 construct: Human cereblon-DDB1 (cereblon amino acids 40-442 and full length DDB1); The first zinc finger domain encompasses amino acid residues 405-432; ZZ-domain-6xHis-thrombin site (N, cleaved yes); made in house; host or cells: SF9 insect cells (cereblon-DDB1, Cul4A-Rbx1); E. coli BL21 (DE3) Star (MBP-zinc finger)
# Procedure: (§1) Purified E1, E2, ubiquitin, Cul4A-Rbx1, cereblon-DDB1, and GSPT1 proteins were used to reconstitute the ubiquitination of MBP-fused WT and mutant proteins in vitro. Substrate proteins purified by maltose affinity resin (NEB) were incubated at an approximate concentration of 30 uM. Ubiquitination components described briefly: Human cereblon-DDB1 (cereblon amino acids 40-442 and full length DDB1) and 6×his-DDB1 alone were co-expressed in SF9 insect cells in the presence of 50 μM zinc acetate, and purified by nickel affinity resin (Qiagen), HiTrap ANX column ion exchange (GE Healthcare), and Sephacryl 400 16/60 size exclusion chromatography (GE healthcare). Human full length Cul4A and Rbx1 were co-expressed in SF9 insect cells and purified by nickel affinity resin and Superdex 200 16/60 size exclusion chromatography. Purified recombinant human Ube1 E1 (E-305), UbcH5a E2 (E2-616), and ubiquitin (U-100H) were purchased from R&D systems. Components were mixed to final concentrations of 10 mM ATP, 1 μM Ube1, 25 μM UbcH5a, 200 μM Ub, 1 μM Cul4-Rbx1, 25 μM GSPT1, and 1 μM cereblon-DDB1, with or without 100 μM compound as indicated in ubiquitination assay buffer (20 mM HEPES pH 7.5, 150 mM NaCl, 10 mM MgCl2). After preincubation of E1, E2, ATP and ubiquitin for 30 minutes, and separate pre-incubation of MBP-substrate, CRBN-DDB1, Cul4-Rbx1, and compound for 5 minutes at room temperature, ubiquitination reactions were started by mixing the two pre-incubations. Reactions were incubated at 30 C for 2 hours before separation by SDS-PAGE followed by coomassie staining or immunoblot analysis.
# (§2) SALL4 contains 7 zinc finger domains, 4 of which have a glycine at the same position as cereblon substrates Ikaros and Aiolos. In this example, four domains containing these 4 glycine-containing zinc fingers were tested for compound-dependent ubiquitination by cereblon-CRL4 in a fully purified, in vitro ubiquitination system (see FIG. 1). The first zinc finger domain encompasses amino acid residues 405-432, which has a sequence of […] (SEQ ID NO: 3). The second zinc finger domain encompasses amino acid residues 589-616, which has a sequence of […] (SEQ ID NO: 4). The third zinc finger domain encompasses amino acid residues 865-892, which has a sequence of […] (SEQ ID NO: 5). The fourth zinc finger domain encompasses amino acid residues 893-920, which has a sequence of […] (SEQ ID NO: 6). Ikaros zinc finger domain (amino acid residues 140-168) was used as a control, which has a sequence of […] (SEQ ID NO: 7).
# (§3) More specifically, individual zinc finger domains of SALL4 were expressed in E. coli and purified via an MBP tag. Purified zinc fingers were then tested in an in vitro ubiquitination assay for cereblon binding and ubiquitination. Purified zinc fingers were incubated with purified cereblon-CRL4 ubiquitin ligase complex and purified ubiquitination cascade components Uba1, UbcH5a, UbcH5b, ATP, and ubiquitin.
# (§4) Ikaros and Aiolos harbor this motif within a zinc finger domain. 4 of them contain a glycine at the position necessary to mediate cereblon binding (see FIG. 1B). The human version of these four individual zinc fingers were expressed and purified for testing in our in vitro cereblon-CRL4 ubiquitination assay (see FIG. 1C). […] The existence of preferred zinc finger domains is highly reminiscent of the cereblon substrates Ikaros and Aiolos, where a single zinc finger motif mediates cereblon recruitment and degradation.
# [3] = target: T2, SALL4 zinc finger domains / cereblon-CRL4 (Homo sapiens, UniProt Q96SW2+Q9UJQ4, G600A); test: as above; type: biochemical; conditions: compared with wild-type ZF4; with thalidomide
# T2 construct: Human cereblon-DDB1 (cereblon amino acids 40-442 and full length DDB1); The first zinc finger domain encompasses amino acid residues 405-432; ZZ-domain-6xHis-thrombin site (N, cleaved yes); made in house; host or cells: SF9 insect cells (cereblon-DDB1, Cul4A-Rbx1); E. coli BL21 (DE3) Star (MBP-zinc finger)
# Procedure: as §1, §2, §3, §4
# [4] = target: T3, SALL4 zinc finger domains / cereblon-CRL4 (Homo sapiens, UniProt Q96SW2+Q9UJQ4); test: as above; type: biochemical; conditions: MBP-tagged zinc finger, thalidomide vs DMSO
# T3 construct: Human cereblon-DDB1 (cereblon amino acids 40-442 and full length DDB1); The first zinc finger domain encompasses amino acid residues 405-432; ZZ-domain-6xHis-thrombin site (N, cleaved yes); made in house; host or cells: SF9 insect cells (cereblon-DDB1, Cul4A-Rbx1); E. coli BL21 (DE3) Star (MBP-zinc finger)
# Procedure: as §1, §2, §3, §4
# T1 sequence (Q96SW2 40-442, stated change not applied): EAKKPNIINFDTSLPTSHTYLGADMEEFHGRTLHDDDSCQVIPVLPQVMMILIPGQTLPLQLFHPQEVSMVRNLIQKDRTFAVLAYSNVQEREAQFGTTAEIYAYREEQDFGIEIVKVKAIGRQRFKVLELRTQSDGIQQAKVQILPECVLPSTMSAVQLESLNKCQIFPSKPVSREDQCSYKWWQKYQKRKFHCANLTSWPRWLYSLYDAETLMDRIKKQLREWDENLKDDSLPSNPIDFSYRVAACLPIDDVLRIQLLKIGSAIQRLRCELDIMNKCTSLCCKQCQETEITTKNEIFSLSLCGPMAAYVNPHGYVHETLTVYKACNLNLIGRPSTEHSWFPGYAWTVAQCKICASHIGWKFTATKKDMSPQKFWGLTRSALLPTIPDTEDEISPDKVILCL
# T1 sequence (Q9UJQ4 405-432 G416A): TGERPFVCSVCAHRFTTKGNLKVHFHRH
# T1 sequence (Q16531 whole entry partner, the tested form may be a part): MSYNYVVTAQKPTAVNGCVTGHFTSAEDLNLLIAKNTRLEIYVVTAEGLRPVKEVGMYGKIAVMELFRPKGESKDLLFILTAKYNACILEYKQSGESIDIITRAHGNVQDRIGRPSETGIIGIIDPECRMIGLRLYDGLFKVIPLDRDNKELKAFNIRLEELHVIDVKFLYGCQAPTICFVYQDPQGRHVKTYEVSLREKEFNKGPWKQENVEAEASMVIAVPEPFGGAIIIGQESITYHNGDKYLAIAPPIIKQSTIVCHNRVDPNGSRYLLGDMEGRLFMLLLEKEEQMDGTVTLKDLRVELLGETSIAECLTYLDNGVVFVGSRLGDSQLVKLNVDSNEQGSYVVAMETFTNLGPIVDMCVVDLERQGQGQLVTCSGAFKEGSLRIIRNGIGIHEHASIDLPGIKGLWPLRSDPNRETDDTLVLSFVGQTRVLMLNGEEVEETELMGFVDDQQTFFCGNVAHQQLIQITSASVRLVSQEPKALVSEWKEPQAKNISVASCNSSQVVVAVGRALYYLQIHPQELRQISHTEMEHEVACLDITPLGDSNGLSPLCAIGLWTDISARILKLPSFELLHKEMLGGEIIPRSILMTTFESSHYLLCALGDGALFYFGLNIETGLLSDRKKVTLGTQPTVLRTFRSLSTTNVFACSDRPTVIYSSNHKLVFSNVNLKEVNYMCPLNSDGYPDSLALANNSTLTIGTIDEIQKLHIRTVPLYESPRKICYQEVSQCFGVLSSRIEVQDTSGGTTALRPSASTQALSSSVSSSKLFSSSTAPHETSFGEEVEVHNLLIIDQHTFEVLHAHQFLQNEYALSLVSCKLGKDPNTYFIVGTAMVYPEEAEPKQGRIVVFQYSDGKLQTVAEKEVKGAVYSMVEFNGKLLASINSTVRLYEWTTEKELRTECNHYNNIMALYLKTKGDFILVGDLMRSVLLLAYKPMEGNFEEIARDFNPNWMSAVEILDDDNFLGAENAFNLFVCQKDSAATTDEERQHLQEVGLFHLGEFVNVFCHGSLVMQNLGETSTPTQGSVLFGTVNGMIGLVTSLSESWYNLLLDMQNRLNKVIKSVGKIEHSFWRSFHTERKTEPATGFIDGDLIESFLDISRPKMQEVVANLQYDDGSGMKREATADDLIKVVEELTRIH
# T1 sequence (Q13619 whole entry partner, the tested form may be a part): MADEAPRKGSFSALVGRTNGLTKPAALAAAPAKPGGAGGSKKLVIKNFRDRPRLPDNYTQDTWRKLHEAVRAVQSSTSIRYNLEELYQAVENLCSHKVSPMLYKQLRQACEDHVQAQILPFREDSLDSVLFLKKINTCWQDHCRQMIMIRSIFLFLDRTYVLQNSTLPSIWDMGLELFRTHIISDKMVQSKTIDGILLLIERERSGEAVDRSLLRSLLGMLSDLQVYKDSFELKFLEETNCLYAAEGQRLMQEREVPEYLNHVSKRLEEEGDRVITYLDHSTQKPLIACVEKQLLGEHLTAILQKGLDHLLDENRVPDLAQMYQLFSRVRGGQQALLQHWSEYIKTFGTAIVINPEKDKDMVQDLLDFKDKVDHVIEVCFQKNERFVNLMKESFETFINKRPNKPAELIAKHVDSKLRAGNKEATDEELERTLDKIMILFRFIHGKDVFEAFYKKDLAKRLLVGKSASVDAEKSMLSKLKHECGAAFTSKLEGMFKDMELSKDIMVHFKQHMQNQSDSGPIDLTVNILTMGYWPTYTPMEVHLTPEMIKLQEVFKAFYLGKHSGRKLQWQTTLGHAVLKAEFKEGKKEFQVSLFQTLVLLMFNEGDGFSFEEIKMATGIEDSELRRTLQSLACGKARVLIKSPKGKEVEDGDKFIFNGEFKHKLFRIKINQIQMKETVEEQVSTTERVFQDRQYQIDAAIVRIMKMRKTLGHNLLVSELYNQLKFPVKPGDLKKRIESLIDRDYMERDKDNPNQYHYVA
# T1 sequence (P62877 whole entry partner, the tested form may be a part): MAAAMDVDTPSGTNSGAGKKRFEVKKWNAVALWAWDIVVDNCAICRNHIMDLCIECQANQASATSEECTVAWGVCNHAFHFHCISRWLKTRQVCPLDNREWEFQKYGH
# T2 sequence (Q96SW2 40-442): as the sequence (Q96SW2 40-442, stated change not applied) above
# T2 sequence (Q9UJQ4 589-616 G600A): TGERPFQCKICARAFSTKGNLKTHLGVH
# T2 sequence (Q16531 whole entry partner, the tested form may be a part): as the sequence (Q16531 whole entry partner, the tested form may be a part) above
# T2 sequence (Q13619 whole entry partner, the tested form may be a part): as the sequence (Q13619 whole entry partner, the tested form may be a part) above
# T2 sequence (P62877 whole entry partner, the tested form may be a part): as the sequence (P62877 whole entry partner, the tested form may be a part) above
structure (smiles),measurement,setting,value
O=C1CCC(N2C(=O)c3ccccc3C2=O)C(=O)N1 (centres unmarked) [thalidomide],Binding of G416A SALL4 to cereblon (co-IP),[1],disrupted cereblon binding in cells
same,Binding of G600A SALL4 to cereblon (co-IP),[1],able to bind cereblon
same,Binding of wild-type SALL4 to cereblon (co-IP),[1],able to bind cereblon
same,Ubiquitination of G416A mutant SALL4 zinc finger 2,[2],significantly reduced upon mutation of the glycine to alanine; also recorded: significantly reduced ubiquitination
same,Ubiquitination of G600A mutant SALL4 zinc finger 4,[3],significantly reduced upon mutation of the glycine to alanine
same,"Ubiquitination of SALL4 zinc finger 2 (ZF2, a.a. 410-432) by cereblon-CRL4",[4],robustly ubiquitinated in a thalidomide-dependent manner; also recorded: efficiently ubiquitinated by cereblon-CRL4 in a thalidomide-dependent manner; also recorded: efficiently ubiquitinated by human cereblon in a thalidomide-dependent manner
same,"Ubiquitination of SALL4 zinc finger 4 (ZF4, a.a. 594-616) by cereblon-CRL4",[4],"also ubiquitinated in the presence of thalidomide, but more weakly; also recorded: weak ubiquitination"
same,Ubiquitination of SALL4 zinc finger domain a.a. 405-432 by cereblon-CRL4,[4]; 100 μM compound,observed only in the presence of cereblon modifying compound; also recorded: ubiquitinated in a thalidomide-dependent manner quite strongly; also recorded: predominantly ubiquitinated by cereblon-CRL4 in a thalidomide-dependent manner
